Experimental data published in the NIST ThermoML archive (doi:10.1016/j.jct.2007.09.009).

What was measured:
[1] = refractive index (Na D-line) (dimensionless); details: 298.15 K; 101.33 kPa; Liquid; Standard Abbe refractometry
[2] = 298.15 K; 101.33 kPa; Liquid; Pycnometric method
[3] = xn = mol fraction of the nth substance listed; details: 313.15 K, 101 kPa, Liquid, Direct dilatometry

CC(=O)N(C)C [N,N-dimethylethanamide]
Details | mass density [kg/m3] | refractive index
[1] | – | 1.43556
[2] | 922.4 | –

CC(=O)N(C)C [N,N-dimethylethanamide] + CCO
[3]
Details | excess molar volume [m3/mol]
x1 = 0.0259 | -3.74e-08
x1 = 0.0456 | -6.13e-08
x1 = 0.0769 | -9.86e-08
x1 = 0.103 | -1.237e-07
x1 = 0.1481 | -1.61e-07
x1 = 0.1765 | -1.787e-07
x1 = 0.2149 | -1.991e-07
x1 = 0.2587 | -2.157e-07
x1 = 0.2846 | -2.228e-07
x1 = 0.3094 | -2.282e-07
x1 = 0.3288 | -2.315e-07
x1 = 0.3513 | -2.338e-07
x1 = 0.3784 | -2.352e-07
x1 = 0.3866 | -2.374e-07
x1 = 0.4014 | -2.353e-07
x1 = 0.4131 | -2.373e-07
x1 = 0.4396 | -2.356e-07
x1 = 0.4661 | -2.327e-07
x1 = 0.4937 | -2.292e-07
x1 = 0.5249 | -2.227e-07
x1 = 0.5532 | -2.161e-07
x1 = 0.5913 | -2.059e-07
x1 = 0.6379 | -1.906e-07
x1 = 0.6743 | -1.761e-07
x1 = 0.7191 | -1.593e-07
x1 = 0.7691 | -1.359e-07
x1 = 0.8211 | -1.109e-07
x1 = 0.8768 | -7.86e-08
x1 = 0.9287 | -4.6e-08
x1 = 0.962 | -2.56e-08

CC(=O)N(C)C [N,N-dimethylethanamide] + CO
[3]
Details | excess molar volume [m3/mol]
x1 = 0.0166 | -5.83e-08
x1 = 0.0295 | -9.34e-08
x1 = 0.0344 | -1.106e-07
x1 = 0.0508 | -1.501e-07
x1 = 0.0623 | -1.832e-07
x1 = 0.0717 | -2.034e-07
x1 = 0.0953 | -2.561e-07
x1 = 0.0979 | -2.653e-07
x1 = 0.1263 | -3.178e-07
x1 = 0.1366 | -3.395e-07
x1 = 0.169 | -3.878e-07
x1 = 0.1692 | -3.91e-07
x1 = 0.1997 | -4.315e-07
x1 = 0.2025 | -4.324e-07
x1 = 0.228 | -4.611e-07
x1 = 0.2317 | -4.661e-07
x1 = 0.2533 | -4.845e-07
x1 = 0.2599 | -4.913e-07
x1 = 0.2804 | -5.069e-07
x1 = 0.2837 | -5.077e-07
x1 = 0.3079 | -5.225e-07
x1 = 0.308 | -5.222e-07
x1 = 0.3093 | -5.264e-07
x1 = 0.3243 | -5.305e-07
x1 = 0.3406 | -5.399e-07
x1 = 0.3748 | -5.488e-07
x1 = 0.4031 | -5.518e-07
x1 = 0.4372 | -5.508e-07
x1 = 0.4807 | -5.416e-07
x1 = 0.5265 | -5.238e-07
x1 = 0.5817 | -4.921e-07
x1 = 0.5988 | -4.766e-07
x1 = 0.6131 | -4.66e-07
x1 = 0.6318 | -4.516e-07
x1 = 0.6362 | -4.516e-07
x1 = 0.6489 | -4.37e-07
x1 = 0.6633 | -4.244e-07
x1 = 0.6702 | -4.188e-07
x1 = 0.6938 | -3.98e-07
x1 = 0.6957 | -3.938e-07
x1 = 0.6975 | -3.923e-07
x1 = 0.7225 | -3.669e-07
x1 = 0.7286 | -3.606e-07
x1 = 0.7471 | -3.413e-07
x1 = 0.752 | -3.354e-07
x1 = 0.7584 | -3.295e-07
x1 = 0.7813 | -3.022e-07
x1 = 0.7951 | -2.867e-07
x1 = 0.8055 | -2.731e-07
x1 = 0.8278 | -2.456e-07
x1 = 0.83 | -2.444e-07
x1 = 0.8417 | -2.295e-07
x1 = 0.8584 | -2.065e-07
x1 = 0.8746 | -1.858e-07
x1 = 0.8862 | -1.705e-07
x1 = 0.9051 | -1.481e-07
x1 = 0.9081 | -1.406e-07
x1 = 0.9134 | -1.337e-07
x1 = 0.9384 | -9.87e-08
x1 = 0.943 | -9.15e-08
x1 = 0.9698 | -5.42e-08
x1 = 0.9711 | -5.33e-08

CCO [ethanol]
Details | mass density [kg/m3] | refractive index
[1] | – | 1.3592
[2] | 772.2 | –

CO [methanol]
Details | mass density [kg/m3] | refractive index
[1] | – | 1.32645
[2] | 772.2 | –
